Patent US4038410A, “Nitroimidazole derivatives and process for the preparation thereof” (Schering Aktiengesellschaft, priority 1974, dated 1977)
Values after ≈ are worked out from the molar mass of the structure shown. Read-outs that look alike come from different tables or passages of the source.

What was measured:
[1] = system: Trichomonas vaginalis; assay: Minimum inhibitory concentration against Trichomonas vaginalis; assay type: cell-based
[2] = system: Entamoeba histolytica; assay: Minimum inhibitory concentration against Entamoeba histolytica; assay type: cell-based; details: Table II; for MIC: read-out: Minimum Inhibitory Concentration (MIC) in μg./ml. Against Entamoeba hist.
[3] = system: Trichomonas vaginalis; details: literature: C. Cosar, Arzneimittelforschung 16, 23 (1966); French Pat. No. 1,212,028; cited from earlier work
[4] = Table II, read-out: Minimum Inhibitory Concentration (MIC) in μg./ml. Against Trich vag.
[5] = Table I, read-out: Minimum Inhibitory Concentration (MIC) in μg./ml. Against Trich. vag.

Compound	MIC [1, 4] [µg/mL]	MIC [2] [µg/mL]	also measured
Cc1c(-c2ncc([N+](=O)[O-])n2C)cnn1-c1ccc(Cl)cc1 [1-(4-Chlorophenyl)-5-methyl-4-(1-methyl-5-nitro-2-imidazolyl)-pyrazole]	0.2 (≈ 0.629 µM)	–	–
Cn1nccc1-c1ncc([N+](=O)[O-])n1C [1-Methyl-5-(1-methyl-5-nitro-2-imidazolyl)-pyrazole]	–	–	MIC [1, 5]: 0.05 µg/mL (≈ 0.241 µM)
COc1ccc(-n2ncc(-c3ncc([N+](=O)[O-])n3C)c2C)cc1 [1-p-Anisyl-5-methyl-4-(1-methyl-5-nitro-2-imidazolyl)-pyrazole]	0.2 (≈ 0.638 µM)	–	–
Cc1nc(-c2ccco2)ncc1-c1ncc([N+](=O)[O-])n1C [2-(2-Furyl)-4-methyl-5-(1-methyl-5-nitro-2-imidazolyl)-pyrimidine]	0.4 (≈ 1.4 µM)	–	–
Cc1c(-c2ncc([N+](=O)[O-])n2C)cnn1CCO [2-[5-Methyl-4-(1-methyl-5-nitro-2-imidazolyl)-pyrazolyl]-ethanol]	0.2 (≈ 0.796 µM)	50 (≈ 199 µM)	–
Cc1[nH]ncc1-c1ncc([N+](=O)[O-])n1C [3(5)-Methyl-4-(1-methyl-5-nitro-2-imidazolyl)-pyrazole]	0.2 (≈ 0.965 µM)	12.5 (≈ 60.3 µM)	–
Cn1c([N+](=O)[O-])cnc1-c1cc[nH]n1 [3-(1-Methyl-5-nitro-2-imidazolyl)-pyrazole]	–	–	MIC [1, 5]: 0.1 µg/mL (≈ 0.518 µM)
CN(C)C=CC(=O)c1ncc([N+](=O)[O-])n1C [3-Dimethylamino-1-(1-methyl-5-nitro-2-imidazolyl)-2-propenone]	–	–	MIC [1, 5]: 0.1 µg/mL (≈ 0.446 µM)
Cc1nn([N+](=O)[O-])cc1-c1ncc([N+](=O)[O-])n1C [3-Methyl-4-(1-methyl-5-nitro-2-imidazolyl)-1-nitropyrazole]	0.4 (≈ 1.59 µM)	25 (≈ 99.1 µM)	–
Cc1nc(N)ncc1-c1ncc([N+](=O)[O-])n1C [4-Methyl-5-(1-methyl-5-nitro-2-imidazolyl)-pyrimidine-2-amine]	0.1 (≈ 0.427 µM)	–	–
Cc1c(-c2ncc([N+](=O)[O-])n2C)cnn1-c1ccc([N+](=O)[O-])cc1 [5-Methyl-4-(1-methyl-5-nitro-2-imidazolyl)-1-(4-nitrophenyl)-pyrazole]	0.4 (≈ 1.22 µM)	–	–
Cc1c(-c2ncc([N+](=O)[O-])n2C)cnn1-c1ccccc1 [5-Methyl-4-(1-methyl-5-nitro-2-imidazolyl)-1-phenylpyrazole]	0.1 (≈ 0.353 µM)	12.5 (≈ 44.1 µM)	–
Cc1ncc([N+](=O)[O-])n1CCO [Metronidazole, 5-nitro-2-methyl-1-(2-hydroxyethyl)-imidazole, reference compound]	1.6 (≈ 9.35 µM)	> 100	MIC [1, 5]: 1.6 µg/mL (≈ 9.35 µM); effective against Trichomonas vaginalis [3]: effective
Mixture of 1,3-Dimethyl-4-(1-methyl-5-nitro-2-imidazolyl)-pyrazole and 1,5-Dimethyl-4-(1-methyl-5-nitro-2-imidazolyl)-pyrazole	–	–	Minimum Inhibitory Concentration (MIC) in μg./ml. Against Entamoeba hist. [2]: 12.5 µg/mL; Minimum Inhibitory Concentration (MIC) in μg./ml. Against Trich vag. ([1]; Table II): 0.1 µg/mL
Mixture of 5-Methyl-4-(1-methyl-5-nitro-2-imidazolyl)-isoxazole and 3-Methyl-4-(1-methyl-5-nitro-2-imidazolyl)-isoxazole	–	–	Minimum Inhibitory Concentration (MIC) in μg./ml. Against Entamoeba hist. [2]: 50 µg/mL; Minimum Inhibitory Concentration (MIC) in μg./ml. Against Trich vag. ([1]; Table II): 0.2 µg/mL
